From paper PMC3684770 (Free Radical Biology & Medicine, 2013)
pEC50, pIC50: −log10 of the molar value. Read-outs that look alike come from different tables or passages of the source.

Key:
C6 astrocyte cell line = assay: C6 oxidative stress assay (serum withdrawal, DCF); settings: for Emax: 24 h, read-out: C6 oxidative stress assay Max reduction; for pIC50: read-out: C6 oxidative stress assay IC50; for C6 oxidative stress assay Toxic dose: minimum dose at which toxicity was observed
Description: (§1) Media were then replaced with serum-free, phenol-free media for 5 h.

Nrf2-ARE pathway = assay: ARE reporter assay in CHO 4xARE-TK-GFP cells (Spectrum library hits); settings: for Toxic dose: lowest dose at which a reduction in GFP fluorescence was observed
Description: The Z′ score was calculated as follows Z′=1−(3SD^++3SD^−)/(Ave^+–Ave^−) where SD^+ = standard deviation of positive control wells; SD^− = standard deviation of negative control wells; Ave^+ = average fluorescence reading of positive control wells; Ave^− = average fluorescence reading of negative control wells.
Media was removed by hand and replaced (1 compound/well) with the Spectrum library diluted to 10 μM in 0.1% DMSO using a Q-bot liquid handling system (Genetix, New Milton, UK). […] The TK-GFP CHO ARE cell line was screened twice in a single point assay and the control TK-GFP CHO cell line was screened once to eliminate false positives.
The compounds were applied in triplicate to confluent cells in 96 well plates in serum free medium for 24 hours and the induction of GFP measured in a fluorescence plate reader.
In order to screen the Spectrum collection of 2000 molecules the reporter assay was optimised in […]. To assess the suitability of the assay for library screening, a Z’ score calculation was performed by treating alternate wells with vehicle (0.1% DMSO) and 10 µM Ebselen as a positive control (see calculation in Methods). […] The library was subsequently screened at a single point concentration of 10µM for every compound. Drug library dilutions and plating were performed with a Q-BOT liquid handling system and both the 4xARE-TK-GFP reporter cell line and TK-GFP control cell line were tested for their response to the compounds. Hits were identified as having data points more than three standard deviations above the background level, which was the average value of 24 wells treated with vehicle (0.1% DMSO) only. Hit compounds were checked to see if they generated a response in the control cell line, for example by non-specific activation of transcription or autofluorescence. […] The library screen was repeated once in the 4xARE –TK-CHO cell line and compounds classed as hits in both screens were taken forward for further assessment.

NSC34 cells = assay: NSC34 oxidative stress assay (serum withdrawal, DCF); settings: for Emax: Mus musculus, NSC-34, 24 h, read-out: NSC34 oxidative stress assay Max reduction; for NSC34 oxidative stress assay Toxic dose: minimum dose at which toxicity was observed
Description: as §1

[1] = system: 1321N1 astrocyte cell line; assay: 1321N1 oxidative stress assay (serum withdrawal, DCF); settings: for Emax: 1321-N1, 24 h, read-out: 1321N1 oxidative stress assay Max reduction; for 1321N1 oxidative stress assay Toxic dose: minimum dose at which toxicity was observed
Description: as §1

[2] = maximum % inhibition of DCF signal
[3] = 24-h preconditioning, 6-h serum withdrawal, DCF fluorescence
[4] = CHO ARE reporter, 7-point concentration response
[5] = average fold over baseline at the maximal response, CHO cells, 24 h
[6] = maximum % inhibition of DCF signal, negative = prooxidant
[7] = Homo sapiens, 1321-N1, read-out: 1321N1 oxidative stress assay IC50

Molecule	Emax (C6 astrocyte cell line; Rattus norvegicus, Astrocyte) [%]	pIC50 (C6 astrocyte cell line; Rattus norvegicus, Astrocyte)	C6 oxidative stress assay Toxic dose (C6 astrocyte cell line)	Toxic dose (Nrf2-ARE pathway)	Emax (NSC34 cells) [%]	NSC34 oxidative stress assay Toxic dose (NSC34 cells)	Emax ([1]; Homo sapiens) [%]	1321N1 oxidative stress assay Toxic dose [1]	pEC50 (Nrf2-ARE pathway; [4])	Fold GFP induction (Nrf2-ARE pathway; [5]) [fold]	NSC34 oxidative stress assay Max reduction (NSC34 cells; [6]) [%]	1321N1 oxidative stress assay Max reduction [1, 2] [%]	pEC50 (Nrf2-ARE pathway; Cricetulus griseus)	pIC50 [1, 7]	further results
C=C(C)/C=C1/C=CC(=O)C(C)=C1 [Retusoquinone]	15	5.69	none	100 µM	-25	none	0	none							
3-α-Hydroxygedinin															C6 oxidative stress assay Max reduction (C6 astrocyte cell line): 42%; pIC50 (C6 astrocyte cell line): 5.49; Fold GFP induction (Nrf2-ARE pathway): 3.01 fold; NSC34 oxidative stress assay Max reduction (NSC34 cells): 14%; 1321N1 oxidative stress assay Max reduction [1]: 25%
Methyl-7-deshydroxypyrogallin-4-carboxylate			none	100 µM		0.3 µM		none	< 4.00	2.83	-23	45			C6 oxidative stress assay Max reduction (C6 astrocyte cell line; [2]): 70%; pIC50 (C6 astrocyte cell line; [3]): 5.53
S=C=NCc1ccccc1 [Benzyl isothiocyanate]	27	5.46	none	None	-28	none	8	none					4.62		
CC(=O)O[C@@H]1CC2C(C)(C)C=CC(=O)[C@]2(C)C2CC[C@@]3(C)[C@H](c4ccoc4)OC(=O)C4OC43[C@@]21C (stereo partly drawn) [Isogedunin]				None		1 µM		None	< 4.00	3.11	0	10			
CCCCCc1c2c(cc(O)c1C(=O)O)OC(=O)c1c(cc(OC)cc1C(=O)CCCC)O2 [Lobaric acid]	9	5.50	none	100 µM	-26	none	0	none					4.77		
C=CC(C1=CC(=O)C=CC1=O)c1ccccc1 (stereo not drawn) [Dalbergione]	40	4.34	None	30 µM	0	None	38	None					5.61	4.19	
CC(=O)O[C@@H]1C[C@H]2C(C)(C)C(=O)C=C[C@]2(C)[C@H]2CC[C@]3(C)C(=CC(=O)O[C@H]3c3ccoc3)[C@@]21C [Deoxygedunin]			none	30 µM		10 µM		10 µM	5.94	1.82	7	25			C6 oxidative stress assay Max reduction (C6 astrocyte cell line; [2]): 61%; pIC50 (C6 astrocyte cell line; [3]): 5.66; pIC50 ([1]; read-out: 1321N1 oxidative stress assay IC50, 24-h preconditioning, 6-h serum withdrawal, DCF fluorescence): 5.85
COc1ccc(/C=C/C(=O)c2ccccc2)cc1 [4-Methoxychalcone]	82	5.45	None	100 µM	24	None	30	None		2.13			4.82	5.44	
CC(=O)OC1CC[C@@]2(C)C(CC[C@H]3[C@@H]4CC=C(C(C)=O)[C@@]4(C)C(=O)C[C@@H]32)C1 (stereo partly drawn) [3 Acetoxypregn-16-en-12,20-dione]	50	5.27	None	30 µM	0	None	75	None					5.53	4.91	
